Format in all cases: biochemical
In one experiment the target is T1, EGFR (Homo sapiens, UniProt P00533).
T1 construct: Kinases are expressed as either kinase domains or full length constructs; made in house
As to the kind of experiment: Kinase inhibition assay (33P transfer), EGFR. Particulars: Table 2, kinase inhibition class; read-out: EGFR-1. The procedure, abridged: (§1)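 Each enzyme, purified to near homogeneity by affinity chromatography, was incubated with ATP carrying 33P and a substrate polymer fixed to the plate. Unbound label was removed with dilute phosphoric acid (0.5%) before adding scintillant and counting. Potency is given as the compound level cutting label uptake by 50%.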

The target in another experiment is T2, FGFR1 (Homo sapiens, UniProt P11362).
T2 construct: Kinases are expressed as either kinase domains or full length constructs; made in house
T2 sequence (P11362 22-822, species assumed): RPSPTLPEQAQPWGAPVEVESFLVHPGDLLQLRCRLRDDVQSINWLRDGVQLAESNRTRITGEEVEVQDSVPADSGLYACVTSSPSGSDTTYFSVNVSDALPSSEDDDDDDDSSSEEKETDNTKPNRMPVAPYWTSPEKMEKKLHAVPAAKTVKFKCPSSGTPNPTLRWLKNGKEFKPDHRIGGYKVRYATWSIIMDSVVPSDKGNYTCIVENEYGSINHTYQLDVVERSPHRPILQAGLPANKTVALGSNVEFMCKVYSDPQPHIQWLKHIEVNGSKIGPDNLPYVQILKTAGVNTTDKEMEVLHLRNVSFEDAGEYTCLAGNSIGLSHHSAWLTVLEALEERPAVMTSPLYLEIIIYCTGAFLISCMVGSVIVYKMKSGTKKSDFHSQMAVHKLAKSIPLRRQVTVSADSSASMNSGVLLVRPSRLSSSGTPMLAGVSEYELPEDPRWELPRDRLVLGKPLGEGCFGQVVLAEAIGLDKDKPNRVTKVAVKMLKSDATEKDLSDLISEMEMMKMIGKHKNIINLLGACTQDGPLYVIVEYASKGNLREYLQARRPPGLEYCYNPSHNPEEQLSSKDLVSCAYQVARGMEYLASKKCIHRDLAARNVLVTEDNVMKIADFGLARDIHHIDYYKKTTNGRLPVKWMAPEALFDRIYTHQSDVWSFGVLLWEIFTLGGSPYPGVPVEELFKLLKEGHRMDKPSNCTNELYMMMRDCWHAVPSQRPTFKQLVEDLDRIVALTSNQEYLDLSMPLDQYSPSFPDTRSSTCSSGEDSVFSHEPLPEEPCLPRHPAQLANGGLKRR
The experiment in a line: Kinase inhibition assay (33P transfer), FGFR1. The conditions noted are these: read-out: FGFR1-1.

The next experiment concerns the target T3, AKT (Homo sapiens, UniProt Q9Y243).
T3 construct: Kinases are expressed as either kinase domains or full length constructs; made in house
The experiment in a line: Kinase inhibition assay (33P transfer), AKT. Particulars: Table 2, kinase inhibition class; read-out: AKT3-1. The essentials:
(§2)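 Activity was read as 33P incorporation, counted by liquid scintillation after a 0.5% phosphoric acid wash, into poly(Glu,Tyr) 4:1 or poly(Arg,Ser) 3:1 substrates coated on plates. Enzymes were tagged (GST or polyHis) kinase domains or full-length proteins from bacterial or insect-cell expression, sometimes with regulatory polypeptides.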

A further experiment concerns the target T4, ErbB4 (Homo sapiens, UniProt Q15303).
T4 construct: Kinases are expressed as either kinase domains or full length constructs; made in house
The experiment in a line: Kinase inhibition assay (33P transfer), ErbB4. The conditions noted are these: read-out: ErbB4-1.

In a further experiment the target is T5, IGFR-1 (Homo sapiens, UniProt P08069).
T5 construct: Kinases are expressed as either kinase domains or full length constructs; made in house
T5 sequence (P08069 31-1367): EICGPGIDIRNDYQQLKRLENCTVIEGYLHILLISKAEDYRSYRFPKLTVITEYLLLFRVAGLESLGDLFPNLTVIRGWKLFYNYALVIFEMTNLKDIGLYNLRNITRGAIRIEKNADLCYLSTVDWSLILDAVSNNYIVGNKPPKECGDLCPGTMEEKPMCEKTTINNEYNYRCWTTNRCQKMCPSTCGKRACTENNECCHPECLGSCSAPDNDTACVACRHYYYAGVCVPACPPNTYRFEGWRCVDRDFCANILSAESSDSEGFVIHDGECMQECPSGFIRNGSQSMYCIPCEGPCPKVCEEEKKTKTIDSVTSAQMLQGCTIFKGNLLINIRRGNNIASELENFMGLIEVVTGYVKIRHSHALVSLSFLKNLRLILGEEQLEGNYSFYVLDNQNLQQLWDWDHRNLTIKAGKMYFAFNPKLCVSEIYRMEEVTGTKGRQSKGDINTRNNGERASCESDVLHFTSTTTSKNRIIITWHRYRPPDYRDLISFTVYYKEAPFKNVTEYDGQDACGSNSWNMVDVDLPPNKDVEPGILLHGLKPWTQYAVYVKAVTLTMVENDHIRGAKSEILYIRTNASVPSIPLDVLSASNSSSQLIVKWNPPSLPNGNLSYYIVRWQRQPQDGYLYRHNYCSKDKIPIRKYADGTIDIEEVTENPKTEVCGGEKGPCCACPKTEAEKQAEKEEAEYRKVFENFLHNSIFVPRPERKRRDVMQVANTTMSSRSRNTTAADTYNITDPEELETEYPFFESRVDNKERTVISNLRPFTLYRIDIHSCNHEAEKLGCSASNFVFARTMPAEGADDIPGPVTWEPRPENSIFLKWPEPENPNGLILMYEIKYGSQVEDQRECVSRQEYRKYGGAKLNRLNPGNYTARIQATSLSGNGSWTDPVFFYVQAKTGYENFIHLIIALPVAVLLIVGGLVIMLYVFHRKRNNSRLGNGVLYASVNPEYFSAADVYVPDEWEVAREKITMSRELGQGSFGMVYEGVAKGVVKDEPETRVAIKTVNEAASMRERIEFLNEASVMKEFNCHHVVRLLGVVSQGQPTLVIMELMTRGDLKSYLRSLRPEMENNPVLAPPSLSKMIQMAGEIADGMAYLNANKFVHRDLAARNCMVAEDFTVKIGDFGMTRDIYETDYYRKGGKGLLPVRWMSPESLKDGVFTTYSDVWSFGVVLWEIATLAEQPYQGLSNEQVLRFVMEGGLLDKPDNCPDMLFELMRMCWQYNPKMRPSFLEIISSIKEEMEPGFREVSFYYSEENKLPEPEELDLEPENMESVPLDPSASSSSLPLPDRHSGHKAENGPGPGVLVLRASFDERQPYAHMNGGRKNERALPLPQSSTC
As to the kind of experiment: Kinase inhibition assay (33P transfer), IGFR-1. The conditions noted are these: Table 2, kinase inhibition class.

In the next experiment the target is T6, Tek (Homo sapiens, UniProt Q02763).
T6 construct: Kinases are expressed as either kinase domains or full length constructs; made in house
T6 sequence (Q02763 23-1124, species assumed): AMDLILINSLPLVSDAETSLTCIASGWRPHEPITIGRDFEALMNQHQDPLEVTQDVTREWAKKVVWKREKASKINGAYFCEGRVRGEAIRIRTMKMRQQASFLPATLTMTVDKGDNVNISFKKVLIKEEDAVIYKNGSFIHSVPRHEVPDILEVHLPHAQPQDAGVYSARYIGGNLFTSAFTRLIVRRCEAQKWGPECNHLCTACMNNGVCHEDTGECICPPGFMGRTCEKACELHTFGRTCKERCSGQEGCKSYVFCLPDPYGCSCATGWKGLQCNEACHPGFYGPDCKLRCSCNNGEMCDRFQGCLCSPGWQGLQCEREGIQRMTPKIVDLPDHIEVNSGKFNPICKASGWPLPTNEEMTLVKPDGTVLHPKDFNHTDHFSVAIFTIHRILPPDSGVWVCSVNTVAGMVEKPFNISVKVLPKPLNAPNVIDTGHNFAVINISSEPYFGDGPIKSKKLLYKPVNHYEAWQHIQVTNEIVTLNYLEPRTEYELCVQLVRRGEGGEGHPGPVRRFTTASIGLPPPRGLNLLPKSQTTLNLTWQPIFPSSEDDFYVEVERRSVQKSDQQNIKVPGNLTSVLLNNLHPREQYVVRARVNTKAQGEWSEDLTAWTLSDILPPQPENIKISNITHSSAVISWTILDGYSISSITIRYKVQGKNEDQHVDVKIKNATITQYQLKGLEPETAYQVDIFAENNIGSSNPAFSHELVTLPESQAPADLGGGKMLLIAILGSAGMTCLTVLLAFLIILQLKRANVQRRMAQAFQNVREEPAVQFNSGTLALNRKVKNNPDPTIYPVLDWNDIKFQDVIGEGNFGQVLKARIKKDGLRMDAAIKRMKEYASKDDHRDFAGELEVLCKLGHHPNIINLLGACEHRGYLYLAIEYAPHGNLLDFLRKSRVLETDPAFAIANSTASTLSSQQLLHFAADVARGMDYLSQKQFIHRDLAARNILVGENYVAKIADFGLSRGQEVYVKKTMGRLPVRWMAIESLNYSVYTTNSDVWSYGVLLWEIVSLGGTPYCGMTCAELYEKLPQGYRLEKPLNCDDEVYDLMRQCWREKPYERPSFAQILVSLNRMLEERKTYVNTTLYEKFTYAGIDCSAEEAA
The experiment in a line: Kinase inhibition assay (33P transfer), Tek. The conditions noted are these: read-out: Tek-1. The essentials: as §1

A further experiment deals with T7, Lck (Homo sapiens, UniProt P06239).
T7 construct: Kinases are expressed as either kinase domains or full length constructs; made in house
The experiment in a line: Kinase inhibition assay (33P transfer), Lck. The conditions noted are these: Table 3; read-out: Lck-1. The procedure, abridged: as §2

Another experiment deals with T8, Src (Homo sapiens, UniProt P12931).
T8 construct: Kinases are expressed as either kinase domains or full length constructs; made in house
The experiment in a line: Kinase inhibition assay (33P transfer), Src. The conditions noted are these: Table 6, Src-1 kinase inhibition class. The essentials:
as §1

For another experiment, the target named is T9, Hck-1 (Homo sapiens, UniProt P08631).
T9 construct: Kinases are expressed as either kinase domains or full length constructs; made in house
The experiment in a line: Kinase inhibition assay (33P transfer), Hck. Particulars: Table 6, Hck-1 kinase inhibition class.

The next experiment addresses T10, EPHB4 (Homo sapiens, UniProt P54760).
T10 construct: Kinases are expressed as either kinase domains or full length constructs; made in house
T10 sequence (P54760 16-987): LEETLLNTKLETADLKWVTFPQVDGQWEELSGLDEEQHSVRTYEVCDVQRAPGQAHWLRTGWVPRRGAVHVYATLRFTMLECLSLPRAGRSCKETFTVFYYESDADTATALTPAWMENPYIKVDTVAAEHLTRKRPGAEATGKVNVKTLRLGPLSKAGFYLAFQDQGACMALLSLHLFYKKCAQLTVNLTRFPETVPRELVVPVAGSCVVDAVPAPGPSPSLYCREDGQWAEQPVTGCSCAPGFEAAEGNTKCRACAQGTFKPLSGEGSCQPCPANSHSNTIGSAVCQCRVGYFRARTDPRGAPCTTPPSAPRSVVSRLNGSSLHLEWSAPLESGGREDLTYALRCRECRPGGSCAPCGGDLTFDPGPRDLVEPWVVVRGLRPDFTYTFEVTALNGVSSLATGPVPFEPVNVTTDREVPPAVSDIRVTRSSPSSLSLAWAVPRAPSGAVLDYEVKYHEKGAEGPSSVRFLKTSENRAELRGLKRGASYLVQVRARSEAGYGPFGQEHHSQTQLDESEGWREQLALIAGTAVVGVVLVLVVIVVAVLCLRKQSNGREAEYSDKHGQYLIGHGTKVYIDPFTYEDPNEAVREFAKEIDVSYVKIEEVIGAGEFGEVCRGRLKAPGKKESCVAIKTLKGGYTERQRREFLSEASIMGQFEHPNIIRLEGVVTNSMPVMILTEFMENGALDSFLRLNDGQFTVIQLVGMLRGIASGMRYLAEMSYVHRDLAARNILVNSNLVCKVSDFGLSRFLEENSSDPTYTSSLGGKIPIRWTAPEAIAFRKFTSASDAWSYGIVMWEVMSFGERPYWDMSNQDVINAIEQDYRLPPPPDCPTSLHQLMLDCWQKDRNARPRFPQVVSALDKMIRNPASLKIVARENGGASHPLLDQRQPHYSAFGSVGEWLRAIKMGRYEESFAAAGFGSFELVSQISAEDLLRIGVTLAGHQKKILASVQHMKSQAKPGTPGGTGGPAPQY
The experiment in a line: Kinase inhibition assay (33P transfer), EPHB4. The conditions noted are these: read-out: EPHB4-1.

For the next experiment, the target named is T11, c-Met (Homo sapiens, UniProt P08581).
T11 construct: Kinases are expressed as either kinase domains or full length constructs; made in house
As to the kind of experiment: Kinase inhibition assay (33P transfer), c-Met. The conditions noted are these: Table 2, kinase inhibition class; read-out: Met-1. The essentials:
as §1

Another experiment concerns the target T12, PDGFRB (Homo sapiens, UniProt P09619).
T12 construct: Kinases are expressed as either kinase domains or full length constructs; made in house
As to the kind of experiment: Kinase inhibition assay (33P transfer), PDGFRB. Particulars: read-out: PDGFRB-1.

Another experiment deals with T13, Flt-1 (Homo sapiens, UniProt P17948).
T13 construct: Kinases are expressed as either kinase domains or full length constructs; made in house
The experiment in a line: Kinase inhibition assay (33P transfer), Flt-1. The essentials: as §1

The target in a further experiment is T14, Lyn (Homo sapiens, UniProt P07948).
T14 construct: Kinases are expressed as either kinase domains or full length constructs; made in house
The experiment in a line: Kinase inhibition assay (33P transfer), Lyn. The conditions noted are these: Table 6, Lyn-1 kinase inhibition class. The procedure, abridged:
as §1

In another experiment the target is T15, Fyn (Homo sapiens, UniProt P06241).
T15 construct: Kinases are expressed as either kinase domains or full length constructs; made in house
T15 sequence (P06241 whole entry, species assumed, the tested form may be a part): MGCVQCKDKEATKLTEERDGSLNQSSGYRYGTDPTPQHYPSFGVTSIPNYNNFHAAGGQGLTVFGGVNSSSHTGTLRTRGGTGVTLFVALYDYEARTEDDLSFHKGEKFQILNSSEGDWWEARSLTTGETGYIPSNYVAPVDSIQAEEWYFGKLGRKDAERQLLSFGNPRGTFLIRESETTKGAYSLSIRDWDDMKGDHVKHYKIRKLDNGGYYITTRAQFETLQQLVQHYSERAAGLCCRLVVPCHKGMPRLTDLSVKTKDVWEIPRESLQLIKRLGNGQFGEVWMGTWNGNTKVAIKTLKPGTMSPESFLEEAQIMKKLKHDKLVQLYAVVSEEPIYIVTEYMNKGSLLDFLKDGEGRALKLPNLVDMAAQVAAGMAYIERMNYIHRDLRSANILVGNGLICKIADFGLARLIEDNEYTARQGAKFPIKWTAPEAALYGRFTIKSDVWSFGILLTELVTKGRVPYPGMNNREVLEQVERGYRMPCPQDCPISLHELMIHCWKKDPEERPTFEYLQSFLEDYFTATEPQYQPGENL
The experiment in a line: Kinase inhibition assay (33P transfer), Fyn. The conditions noted are these: read-out: Fyn-1. The procedure, abridged: as §1

T12 sequence (P09619 33-1106, species assumed): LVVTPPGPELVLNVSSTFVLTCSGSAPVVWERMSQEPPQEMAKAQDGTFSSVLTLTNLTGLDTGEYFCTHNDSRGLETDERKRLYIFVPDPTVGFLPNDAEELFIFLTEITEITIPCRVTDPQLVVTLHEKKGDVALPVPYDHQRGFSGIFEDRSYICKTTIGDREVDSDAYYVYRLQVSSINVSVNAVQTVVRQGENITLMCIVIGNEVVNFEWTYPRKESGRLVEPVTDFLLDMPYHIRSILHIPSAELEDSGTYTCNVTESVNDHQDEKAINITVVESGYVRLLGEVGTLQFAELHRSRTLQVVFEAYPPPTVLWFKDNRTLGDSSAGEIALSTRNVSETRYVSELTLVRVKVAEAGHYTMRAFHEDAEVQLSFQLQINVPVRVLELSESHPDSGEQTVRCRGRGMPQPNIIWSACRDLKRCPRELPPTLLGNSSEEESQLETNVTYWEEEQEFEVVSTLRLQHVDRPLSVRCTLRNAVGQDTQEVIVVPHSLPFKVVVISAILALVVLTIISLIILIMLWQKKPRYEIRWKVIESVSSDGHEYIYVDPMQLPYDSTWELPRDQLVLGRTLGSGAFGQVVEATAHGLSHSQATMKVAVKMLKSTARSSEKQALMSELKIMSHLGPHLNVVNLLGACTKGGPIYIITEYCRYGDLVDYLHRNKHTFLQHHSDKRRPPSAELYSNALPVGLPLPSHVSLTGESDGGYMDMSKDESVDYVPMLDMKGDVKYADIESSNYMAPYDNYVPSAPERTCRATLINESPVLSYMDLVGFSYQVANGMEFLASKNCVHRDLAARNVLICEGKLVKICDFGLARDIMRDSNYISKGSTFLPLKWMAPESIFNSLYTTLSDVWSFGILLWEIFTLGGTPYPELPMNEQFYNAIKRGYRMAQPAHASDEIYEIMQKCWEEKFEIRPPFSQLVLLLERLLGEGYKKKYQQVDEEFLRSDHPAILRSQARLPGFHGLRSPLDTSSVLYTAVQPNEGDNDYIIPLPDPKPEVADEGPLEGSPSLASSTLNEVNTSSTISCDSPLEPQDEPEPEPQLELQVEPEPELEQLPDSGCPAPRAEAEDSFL

`COc1cc(Nc2ncnc(Nc3cc(-c4ccccc4)n[nH]3)n2)cc(OC)c1OC` [Compound 102]: the IC50 at EGFR is 0.954 to 5.72 µM; on FGFR1 it was 0.954 to 5.72 µM; on AKT it was more than 10.7 µM; on ErbB4, less than 0.954 µM; against IGFR-1, less than 0.954 µM; at Tek, 5.72 to 8.34 µM. In addition, the IC50 on Lck was less than 0.954 µM; at Src it was less than 0.954 µM; at Hck-1, 5.72 to 8.34 µM; at EPHB4 it was less than 0.954 µM; at c-Met, less than 0.954 µM; on PDGFRB, 5.72 to 8.34 µM. Moreover, the IC50 against Flt-1, against Lyn and on Fyn was less than 0.954 µM throughout.

Turning to `COc1cc(Nc2ncnc(-n3c(N)nc4ccccc43)n2)cc(OC)c1OC` [Compound 289], the IC50 was more than 11.4 µM on EGFR; less than 1.02 µM on FGFR1; more than 11.4 µM at AKT; more than 11.4 µM at ErbB4; less than 1.02 µM against IGFR-1; 1.02 to 6.1 µM at Tek. Further, the IC50 on Lck was less than 1.02 µM; against Src, 1.02 to 6.1 µM; against Hck-1 it was more than 11.4 µM; at EPHB4, 1.02 to 6.1 µM; on c-Met, 1.02 to 6.1 µM; at PDGFRB, less than 1.02 µM. The values for the IC50 at Flt-1, at Lyn and at Fyn were less than 1.02 µM, 6.1 to 8.9 µM and 1.02 to 6.1 µM, respectively.

Consider `COc1cc(Nc2ncnc(-n3c(Nc4ccc(F)cc4)nc4ccccc43)n2)cc(OC)c1OC` [Compound 387], for which the IC50 at EGFR was more than 9.23 µM; at FGFR1, 0.821 to 4.92 µM; at AKT it was more than 9.23 µM; on ErbB4, more than 9.23 µM; against IGFR-1, more than 9.23 µM; at Tek, more than 9.23 µM. Besides, the IC50 was 0.821 to 4.92 µM at Lck; more than 9.23 µM against Src; more than 9.23 µM against Hck-1; more than 9.23 µM on EPHB4; 7.18 to 9.23 µM at c-Met; less than 0.821 µM at PDGFRB. Besides, the IC50 is less than 0.821 µM on Flt-1, 0.821 to 4.92 µM on Lyn and more than 9.23 µM at Fyn.

Take `COc1cc(Nc2ncnc(Nc3cc(-c4ccccc4)nn3C)n2)cc(OC)c1OC` [Compound 394]: the IC50 on EGFR is 8.07 to 10.4 µM; on FGFR1, 0.923 to 5.54 µM; on AKT, more than 10.4 µM; at ErbB4 it was more than 10.4 µM; at IGFR-1, 0.923 to 5.54 µM; on Tek, more than 10.4 µM. For the same compound, the IC50 on Lck is 0.923 to 5.54 µM; against Src, 0.923 to 5.54 µM; at Hck-1, more than 10.4 µM; on EPHB4, 5.54 to 8.07 µM; on c-Met, more than 10.4 µM; at PDGFRB, 0.923 to 5.54 µM. Besides, the IC50 is less than 0.923 µM at Flt-1, less than 0.923 µM on Lyn and 0.923 to 5.54 µM on Fyn.

`COc1cc(Nc2ncnc(Nc3ccc(O)cc3)n2)cc(OC)c1OC` [Compound 85]: the IC50 at EGFR is 1.08 to 6.5 µM; at FGFR1, less than 1.08 µM; at AKT, more than 12.2 µM; at ErbB4, 1.08 to 6.5 µM; against IGFR-1 it was 1.08 to 6.5 µM; on Tek, more than 12.2 µM. Further, the IC50 at Lck is less than 1.08 µM; on Src it was less than 1.08 µM; at Hck-1, more than 12.2 µM; on EPHB4, 1.08 to 6.5 µM; on c-Met, more than 12.2 µM; on PDGFRB, less than 1.08 µM. In addition, the IC50 at Flt-1, against Lyn and at Fyn was less than 1.08 µM throughout.

These data come from patent US7074789B2, “Kinase inhibitors” (Amgen Inc., priority 1999, dated 2006).
